From patent US11865098B1, “Methods and compositions for treating excessive sleepiness” (Axsome Malta Ltd., priority 2017, dated 2024)

System: patients with narcolepsy type 1 or type 2
Assay: MWT, 12-week phase 3 study in narcolepsy
Type: in vivo, human
Conditions: mITT
Protocol: The MWT is an objective test used to measure how alert a subject is during the day. The test consists of four sleep trials with two hours in between the trials. The first trial is performed 1.5-3 hours after the subject's normal wake-up time. Sensors are placed on the head, face, and chin to detect when the subject is asleep and awake during the test. The subject sits quietly in bed with his or her back and head supported by a pillow and is asked to sit still and look straight ahead while trying to stay awake as long as possible. Each trial lasts 40 minutes or until the subject is asleep for 90 seconds. Between trials, the subject stays out of bed and occupies himself or herself to remain awake. Falling asleep in an average of less than eight minutes is considered abnormal. About 40-60% of subjects with normal sleep stay awake for the entire 40 minutes of all four trials.
The study was a 12-week, double-blind, randomized, placebo-controlled, parallel-group study. Patients were randomized (1:1:1:1) to receive placebo or APC 75, 150, or 300 mg; randomization was stratified by the presence or absence of cataplexy.
Key inclusion criteria included adults 18-75 years old, inclusive, with a diagnosis of narcolepsy type 1 or type 2 according to ICSD-3 (American Academy of Sleep Medicine. The International Classification of Sleep Disorders—Third Edition (ICSD-3). Darien, IL: American Academy of Sleep Medicine; 2014) or DSM-5 (American Psychiatric Association. Diagnostic and Statistical Manual of Mental Disorders Fifth Edition (DSM-5). Arlington, VA: American Psychiatric Association; 2013) criteria, baseline mean sleep latency <25 minutes on the first 4 trials of a 5-trial, 40-minute Maintenance of Wakefulness Test (MWT) and baseline Epworth Sleepiness Scale (ESS) (Johns, Sleep 14(6):540 (1991)) score ≥10, usual nightly total sleep time ≥6 hours, and body mass index between 18 and 45 kg/m^2.
Co-primary endpoints were change from baseline to week 12 in MWT mean sleep latency and ESS score. The key secondary endpoint was the percentage of patients who reported improvement on the Patient Global Impression of Change (PGI-C) (Guy, ECDEU assessment manual for psychopharmacology, revised. US Department of Health, Education, and Welfare publication (ADM 76-338). Rockville, MD: National Institute of Mental Health; 1976) at week 12. Other secondary and exploratory endpoints included changes on function and quality-of-life and changes in the number of cataplexy attacks per week. Safety evaluation included adverse events, laboratory tests, and vital signs.
Efficacy analyses were based on the modified intent-to-treat population (mITT), defined as all patients who were randomized, received at least 1 dose of study drug, and had baseline and at least 1 post-baseline evaluation of both MWT and ESS. MWT and ESS were analyzed using a mixed-effect repeated measures (MMRM) model. PGI-C was analyzed using a chi-square test. A fixed hierarchical testing procedure was used to correct for multiplicity, starting with the highest dose of APC for the co-primary endpoints and the key secondary endpoint; testing proceeded with each subsequent lower doses.

Structure (SMILES): NC(=O)OC[C@H](N)Cc1ccccc1 [JZP-110, (R)-2-amino-3-phenylpropyl carbamate]
- MWT mean sleep latency increase from baseline >=5 minutes, % of subjects (75 mg, Week 1): (34.5) %
- MWT mean sleep latency increase from baseline >=5 minutes, n subjects (75 mg, Week 1): 10
- MWT mean sleep latency increase from baseline >=10 minutes, % of subjects (75 mg, Week 1): (24.1) %
- MWT mean sleep latency increase from baseline >=10 minutes, n subjects (75 mg, Week 1): 7
- MWT mean sleep latency increase from baseline >=15 minutes, % of subjects (75 mg, Week 1): (17.2) %
- MWT mean sleep latency increase from baseline >=15 minutes, n subjects (75 mg, Week 1): 5
- MWT mean sleep latency increase from baseline >=20 minutes, % of subjects (75 mg, Week 1): (10.3) %
- MWT mean sleep latency increase from baseline >=20 minutes, n subjects (75 mg, Week 1): 3
- MWT mean sleep latency increase from baseline >=25 minutes, % of subjects (75 mg, Week 1): (3.4) %
- MWT mean sleep latency increase from baseline >=25 minutes, n subjects (75 mg, Week 1): 1
- MWT mean sleep latency increase from baseline >=30 minutes, n subjects (75 mg, Week 1): 0
- MWT mean sleep latency increase from baseline >=5 minutes, % of subjects (75 mg, Week 4): (42.0) %
- MWT mean sleep latency increase from baseline >=5 minutes, n subjects (75 mg, Week 4): 21
- MWT mean sleep latency increase from baseline >=10 minutes, % of subjects (75 mg, Week 4): (24.0) %
- MWT mean sleep latency increase from baseline >=10 minutes, n subjects (75 mg, Week 4): 12
- MWT mean sleep latency increase from baseline >=15 minutes, % of subjects (75 mg, Week 4): (12.0) %
- MWT mean sleep latency increase from baseline >=15 minutes, n subjects (75 mg, Week 4): 6
- MWT mean sleep latency increase from baseline >=20 minutes, % of subjects (75 mg, Week 4): (6.0) %
- MWT mean sleep latency increase from baseline >=20 minutes, n subjects (75 mg, Week 4): 3
- MWT mean sleep latency increase from baseline >=25 minutes, n subjects (75 mg, Week 4): 0
- MWT mean sleep latency increase from baseline >=30 minutes, n subjects (75 mg, Week 4): 0
- MWT mean sleep latency increase from baseline >=5 minutes, % of subjects (75 mg, Week 12): (41.3) %
- MWT mean sleep latency increase from baseline >=5 minutes, n subjects (75 mg, Week 12): 19
- MWT mean sleep latency increase from baseline >=10 minutes, % of subjects (75 mg, Week 12): (19.6) %
- MWT mean sleep latency increase from baseline >=10 minutes, n subjects (75 mg, Week 12): 9
- MWT mean sleep latency increase from baseline >=15 minutes, % of subjects (75 mg, Week 12): (15.2) %
- MWT mean sleep latency increase from baseline >=15 minutes, n subjects (75 mg, Week 12): 7
- MWT mean sleep latency increase from baseline >=20 minutes, % of subjects (75 mg, Week 12): (8.7) %
- MWT mean sleep latency increase from baseline >=20 minutes, n subjects (75 mg, Week 12): 4
- MWT mean sleep latency increase from baseline >=25 minutes, % of subjects (75 mg, Week 12): (2.2) %
- MWT mean sleep latency increase from baseline >=25 minutes, n subjects (75 mg, Week 12): 1
- MWT mean sleep latency increase from baseline >=30 minutes, n subjects (75 mg, Week 12): 0
- MWT mean sleep latency increase from baseline >=5 minutes, % of subjects (150 mg, Week 1): (68.2) %
- MWT mean sleep latency increase from baseline >=5 minutes, n subjects (150 mg, Week 1): 15
- MWT mean sleep latency increase from baseline >=10 minutes, % of subjects (150 mg, Week 1): (50.0) %
- MWT mean sleep latency increase from baseline >=10 minutes, n subjects (150 mg, Week 1): 11
- MWT mean sleep latency increase from baseline >=15 minutes, % of subjects (150 mg, Week 1): (22.7) %
- MWT mean sleep latency increase from baseline >=15 minutes, n subjects (150 mg, Week 1): 5
- MWT mean sleep latency increase from baseline >=20 minutes, % of subjects (150 mg, Week 1): (9.1) %
- MWT mean sleep latency increase from baseline >=20 minutes, n subjects (150 mg, Week 1): 2
- MWT mean sleep latency increase from baseline >=25 minutes, n subjects (150 mg, Week 1): 0
- MWT mean sleep latency increase from baseline >=30 minutes, n subjects (150 mg, Week 1): 0
- MWT mean sleep latency increase from baseline >=5 minutes, % of subjects (150 mg, Week 4): (61.2) %
- MWT mean sleep latency increase from baseline >=5 minutes, n subjects (150 mg, Week 4): 30
- MWT mean sleep latency increase from baseline >=10 minutes, % of subjects (150 mg, Week 4): (42.9) %
- MWT mean sleep latency increase from baseline >=10 minutes, n subjects (150 mg, Week 4): 21
- MWT mean sleep latency increase from baseline >=15 minutes, % of subjects (150 mg, Week 4): (30.6) %
- MWT mean sleep latency increase from baseline >=15 minutes, n subjects (150 mg, Week 4): 15
- MWT mean sleep latency increase from baseline >=20 minutes, % of subjects (150 mg, Week 4): (16.3) %
- MWT mean sleep latency increase from baseline >=20 minutes, n subjects (150 mg, Week 4): 8
- MWT mean sleep latency increase from baseline >=25 minutes, % of subjects (150 mg, Week 4): (10.2) %
- MWT mean sleep latency increase from baseline >=25 minutes, n subjects (150 mg, Week 4): 5
- MWT mean sleep latency increase from baseline >=30 minutes, n subjects (150 mg, Week 4): 0
- MWT mean sleep latency increase from baseline >=5 minutes, % of subjects (150 mg, Week 12): (58.0) %
- MWT mean sleep latency increase from baseline >=5 minutes, n subjects (150 mg, Week 12): 29
- MWT mean sleep latency increase from baseline >=10 minutes, % of subjects (150 mg, Week 12): (48.0) %
- MWT mean sleep latency increase from baseline >=10 minutes, n subjects (150 mg, Week 12): 24
- MWT mean sleep latency increase from baseline >=15 minutes, % of subjects (150 mg, Week 12): (36.0) %
- MWT mean sleep latency increase from baseline >=15 minutes, n subjects (150 mg, Week 12): 18
- MWT mean sleep latency increase from baseline >=20 minutes, % of subjects (150 mg, Week 12): (18.0) %
- MWT mean sleep latency increase from baseline >=20 minutes, n subjects (150 mg, Week 12): 9
- MWT mean sleep latency increase from baseline >=25 minutes, % of subjects (150 mg, Week 12): (8.0) %
- MWT mean sleep latency increase from baseline >=25 minutes, n subjects (150 mg, Week 12): 4
- MWT mean sleep latency increase from baseline >=30 minutes, % of subjects (150 mg, Week 12): (2.0) %
- MWT mean sleep latency increase from baseline >=30 minutes, n subjects (150 mg, Week 12): 1
- MWT mean sleep latency increase from baseline >=5 minutes, % of subjects (300 mg, Week 1): (64.0) %
- MWT mean sleep latency increase from baseline >=5 minutes, n subjects (300 mg, Week 1): 16
- MWT mean sleep latency increase from baseline >=10 minutes, % of subjects (300 mg, Week 1): (56.0) %
- MWT mean sleep latency increase from baseline >=10 minutes, n subjects (300 mg, Week 1): 14
- MWT mean sleep latency increase from baseline >=15 minutes, % of subjects (300 mg, Week 1): (44.0) %
